From US5827895A, “Hexahydrolupulones useful as anticancer agents” (Regents of the University of Minnesota, priority 1996, dated 1998)
Values after ≈ are worked out from the molar mass of the structure shown. “Also recorded” adds a separate entry of the source. Like-named read-outs stand apart in the source and are kept apart here.

Key:
[1] = system: DNA, RNA or protein synthesis; assay: Other studies on DNA, RNA or protein synthesis in cancer cells; type: cell-based
[2] = system: KB cells (human oral epidermoid carcinoma); assay: Trypan blue exclusion assay, cytostatic activity, KB; type: cell-based; conditions: incubation 48h, 3 experiments, read-out: ID50 (the source's name)
[3] = Mannering et al.; cited from earlier work
[4] = system: MRSA (Methicillin Resistant Staphylococcus aureus); assay: Patient isolates evaluated for antibiotic sensitivity, MRSA; conditions: for antibiotic sensitivity: threshold not given
MCF-7 cells = assay: Fluorescence activated cell sorting (FACS), cell cycle phase; type: cell-based, human; conditions: for cell cycle phase distribution: 48 hours
Description: Fluorescence activated cell sorting (FACS) was used to determine what percentage of cells could be found in the designated cell cycle phase after 48 hours of continuous HHC exposure. There are four distinct phases in the cell cycle which lead to duplication of the cell and its genetic material. In the G0/G1 phase the cell is at rest or is performing miscellaneous biosynthetic functions. During the S phase, DNA synthesis occurs which leads to replication of the chromosomes. G2 is the pre-mitotic interval while the M phase is the time during which the cell divides.
MCF-7 cells were exposed to concentrations of 1.5 μM and 25 μM of HHC, and DMSO. DMSO had no significant effect on the cell cycle, with a profile almost identical to that of the "no drug" control.

[5] = system: C1300 cells (mouse neuroblastoma); assay: In vitro ID50 in C1300 mouse neuroblastoma cells; type: cell-based; conditions: Neuroblastoma cell; 48 hours of continuous exposure; preliminary data
Description: C1300 cells (mouse neuroblastoma), a murine tumor cell model which is sensitive to HHC were evaluated.

Staphylococcus aureus = assay: Growth of Staphylococcus aureus in LB broth by OD600 (FIG. 1); type: cell-based; conditions: 0.5-25 μM
Description: A single colony of Staphylococcus aureus was grown in 2 ml of Luria-Bertani(LB) broth overnight at 37° C. in a bacterial shaker with vigorous shaking. 0.5 ml of the culture was transferred to 250 ml LB and allowed to grow at 37° C. until the OD600 (optical density) reading was about 0.2 (a reading of 1 OD600 indicates a cell concentration of approximately 8×10^8 cells/ml). […] No-drug and DMSO solvent were used as controls. Aliquots of the bacterial culture were taken every 2 hours to obtain the OD600 reading.

[6] = system: VRE (Vancomycin Resistant Enterococcus faeclum); conditions: threshold not given
[7] = system: CEM cells (human acute lymphoblastic leukemia); assay: Trypan blue exclusion assay, cytostatic activity, CEM; type: cell-based; conditions: CCRF-CEM, incubation 48h, 4 experiments, read-out: ID50 (the source's name)
[8] = system: Multidrug resistant Staphylococcus (except to Vancomycin); assay: Minimum inhibitory concentration, multidrug resistant Staphylococcus; type: cell-based
[9] = system: HeLa S3 cells (human cervical epithelioid carcinoma); assay: Trypan blue exclusion assay, cytostatic activity, HeLa S3; type: cell-based; conditions: incubation 24h, 3 experiments, read-out: ID50 (the source's name)
[10] = system: CEM vinblastin resistant cells; assay: Trypan blue exclusion assay, cytostatic activity, CEM vinblastin resistant; type: cell-based; conditions: Homo sapiens; CEM vin resistant; incubation 48h; 4 experiments; read-out: ID50 (the source's name)
[11] = system: Raji cells (human Burkitt lymphoma); assay: Trypan blue exclusion assay, cytostatic activity, Raji; type: cell-based; conditions: incubation 24h, 4 experiments, read-out: ID50 (the source's name)
[12] = system: VRE (Vancomycin Resistant Enterococcus faeclum); assay: microbe, parasite or virus in culture
Description: HHC was also tested for effectiveness against various bacterial isolates obtained from human subjects.

[13] = system: M. tuberculosis (ATCC 27294); assay: BACTEC drug susceptibility, M. tuberculosis; type: cell-based; conditions: Mycobacterium tuberculosis, ATCC27294
[14] = system: MCF-7 cells (human breast adenocarcinoma); assay: Trypan blue exclusion assay, cytostatic activity, MCF-7; type: cell-based; conditions: MCF7, incubation 48h, 3 experiments, read-out: ID50 (the source's name)

CC(C)CCC1=C(O)C(C(=O)C(C)C)=C(O)C(CCC(C)C)(CCC(C)C)C1=O [HHC, hexahydrocolupulone]
cytotoxic effect on cancer cells: effects upon DNA, RNA or protein synthesis [1]: not due to major effects upon DNA, RNA or protein synthesis
IC50 [2]: 850 nM
activity relative to non-hydrogenated parent [3]: more active than colupulone
MIC ([4]; Staphylococcus aureus, read-out: [HHC] (MIC)): 1.01 µg/mL (≈ 2.5 µM)
antibiotic sensitivity ([4]; patient D): S
[HHC] (MIC) ([4]; patient E): 1.015 µg/mL
antibiotic sensitivity ([4]; patient E): S
[HHC] (MIC) ([4]; patient F): 1.015 µg/mL
antibiotic sensitivity ([4]; patient F): S
cell cycle phase distribution (MCF-7 cells; 1.5 μM HHC): increase the number of cells in G0/G1 and decrease the number of cells in S phase
cell cycle phase distribution (MCF-7 cells; 25 μM HHC): decrease in the number of cells in G0/G1 and an increase in the number of cells in S phase
effect upon G1-S phase transition (MCF-7 cells; FACS): apparent effect upon the G1-S phase transition of the cell cycle; also recorded: has an effect upon the G1-S phase transition of the cell cycle
IC50 [5]: ~1940 nM
inhibition of bacterial growth (OD600) (Staphylococcus aureus): effective inhibitor of bacterial growth
antibiotic sensitivity ([6]; patient A): S
antibiotic sensitivity ([6]; patient B): S
antibiotic sensitivity ([6]; patient C): S
IC50 [7]: 1970 nM
MIC [8]: 2.5 µM (≈ 1.02 µg/mL)
IC50 [9]: 1210 nM
IC50 [10]: 2610 nM
IC50 [11]: 2190 nM
MIC ([12]; read-out: [HHC] (MIC), patient A, VRE): 1.01 µg/mL (≈ 2.5 µM)
MIC ([12]; read-out: [HHC] (MIC), patient B, VRE): 4.06 µg/mL (≈ 9.99 µM)
MIC ([12]; read-out: [HHC] (MIC), patient C, VRE): 2.03 µg/mL (≈ 4.99 µM)
inhibition at 50 µM ([13]; 50 μM, read-out: inhibition of tuberculosis growth): > 99%
inhibition at 100 µM ([13]; 100 μM, read-out: inhibition of TB growth): 100%
IC50 [14]: 1230 nM
